{"source": "patent US20230346889A9", "about": "“TREATMENT OF ACUTE HEART FAILURE” (AnaCardio R&D AB, priority 2019, published 2023)", "key": {"[1]": {"tested_on": "patients with advanced CHF and reduced EF", "assay": "Trial echocardiography", "format": "in vivo, human", "protocol": "Echocardiography was performed by a technician blinded to treatment allocation and all echo images were analyzed and interpreted by one independent investigator blinded to treatment allocation and clinical history of the patients. Two dimensional images were recorded with a Vivid 7/E9 ultrasound system (GE, Horten, Norway) with a 3 MHz Doppler transducer. A detailed echocardiographic examination including dimensions, cardiac systolic and diastolic function, valve performance and systolic pulmonary artery pressure was performed at baseline (Table 5). A shorter protocol including left ventricular dimensions and function, stroke volume and cardiac output was used for comparison of changes over time (Table 9 and 10). Left ventricular end-systolic and end-diastolic volumes and left ventricular ejection fraction (LVEF) were measured using the modified biplane Simpson's method. LVEF was also measured using the Teichholz method. Because of missing data on LVEF by the Simpson's method due to low image quality, changes in LVEF over time was calculated using the Teichholz method. Left atrial volumes were calculated using the biplane area length method from the apical four- and two-chamber views and indexed to the body surface area. The E/e′ ratio was calculated using the peak E-wave velocity of the mitral inflow and the averaged of septal and lateral tissue Doppler recordings. Tricuspid annular peak systolic excursion (TAPSE) was assessed with M-mode echocardiography. Speckle tracking was used for left ventricular longitudinal strain. […] Stroke volume was derived from the left ventricular outflow tract (LVOT) area and the LVOT […] time integral (VTI) (LVOT area×LVOT VTI). Cardiac output was calculated as the echo derived stroke volume×heart rate."}, "[2]": {"tested_on": "dogs with acute myocardial infarction", "settings": "US2004014671A1; cited from earlier work"}, "rat HF models": {"tested_on": "rat HF models", "settings": "cited from earlier work"}}, "note": "Entries after “also recorded” stand apart in the source; their conditions may differ.", "data": [{"smiles": "CCCCCCCC(=O)OC[C@H](NC(=O)[C@H](CO)NC(=O)CN)C(=O)N[C@@H](Cc1ccccc1)C(=O)N[C@@H](CC(C)C)C(=O)N[C@@H](CO)C(=O)N1CCC[C@H]1C(=O)N[C@@H](CCC(=O)O)C(=O)N[C@@H](Cc1cnc[nH]1)C(=O)N[C@@H](CCC(N)=O)C(=O)N[C@@H](CCCNC(=N)N)C(=O)N[C@H](C(=O)N[C@@H](CCC(N)=O)C(=O)N[C@@H](CCC(N)=O)C(=O)N[C@@H](CCCNC(=N)N)C(=O)N[C@@H](CCCCN)C(=O)N[C@@H](CCC(=O)O)C(=O)N[C@@H](CO)C(=O)N[C@@H](CCCCN)C(=O)N[C@@H](CCCCN)C(=O)N1CCC[C@H]1C(=O)N1CCC[C@H]1C(=O)N[C@@H](C)C(=O)N[C@@H](CCCCN)C(=O)N[C@@H](CC(C)C)C(=O)N[C@@H](CCC(N)=O)C(=O)N1CCC[C@H]1C(=O)N[C@@H](CCCNC(=N)N)C(=O)O)C(C)C", "note": "[Ghrelin]", "values": [{"measurement": "CO (echocardiography)", "setting": "[1]; 2-5 days FU", "value": "3.8 ± 1.3", "unit": "L/min"}, {"measurement": "E/e′", "setting": "[1]; 2-5 days FU", "value": "16.2 ± 8.3", "unit": "ratio"}, {"measurement": "LVEDD", "setting": "[1]; 2-5 days FU", "value": "66 ± 10", "unit": "mm"}, {"measurement": "LVEF", "setting": "[1]; 2-5 days FU", "value": "28.5 ± 11.9", "unit": "%"}, {"measurement": "LVESD", "setting": "[1]; 2-5 days FU", "value": "57 ± 11", "unit": "mm"}, {"measurement": "SV (echocardiography)", "setting": "[1]; 2-5 days FU", "value": "52.5 ± 20.6", "unit": "mL"}, {"measurement": "TAPSE", "setting": "[1]; 2-5 days FU", "value": "11.8 ± 6.0", "unit": "mm"}, {"measurement": "Strain", "setting": "[1]; 2-5 days FU, n = 12", "value": "10.4 ± 6.4", "unit": "%"}, {"measurement": "CO (echocardiography)", "setting": "[1]; +30 min", "value": "4.1 ± 1.5", "unit": "L/min"}, {"measurement": "E/e′", "setting": "[1]; +30 min", "value": "15.3 ± 6.6", "unit": "ratio"}, {"measurement": "LVEDD", "setting": "[1]; +30 min", "value": "65 ± 9", "unit": "mm"}, {"measurement": "LVEF", "setting": "[1]; +30 min", "value": "30.1 ± 11.2", "unit": "%"}, {"measurement": "LVESD", "setting": "[1]; +30 min", "value": "56 ± 11", "unit": "mm"}, {"measurement": "SV (echocardiography)", "setting": "[1]; +30 min", "value": "62.2 ± 23.8", "unit": "mL"}, {"measurement": "TAPSE", "setting": "[1]; +30 min", "value": "14.1 ± 5.4", "unit": "mm"}, {"measurement": "Strain", "setting": "[1]; +30 min, n = 13", "value": "12.46 ± 4.1", "unit": "%"}, {"measurement": "CO (echocardiography)", "setting": "[1]; BL", "value": "3.8 ± 1.5", "unit": "L/min"}, {"measurement": "E/e′", "setting": "[1]; BL", "value": "15.2 ± 5.5", "unit": "ratio"}, {"measurement": "LVEDD", "setting": "[1]; BL", "value": "66 ± 9", "unit": "mm"}, {"measurement": "LVESD", "setting": "[1]; BL", "value": "58 ± 9", "unit": "mm"}, {"measurement": "SV (echocardiography)", "setting": "[1]; BL", "value": "54.3 ± 18.4", "unit": "mL"}, {"measurement": "TAPSE", "setting": "[1]; BL", "value": "13.0 ± 5.9", "unit": "mm"}, {"measurement": "LVEF", "setting": "[1]; BL, Teichholz method", "value": "27.4 ± 7.4", "unit": "%"}, {"measurement": "Strain", "setting": "[1]; BL, n = 13 in ghrelin group", "value": "11.9 ± 6.3", "unit": "%"}, {"measurement": "CO (echocardiography)", "setting": "[1]; Baseline (Table 10)", "value": "3.8 ± 1.5", "unit": "L/min"}, {"measurement": "E/e′", "setting": "[1]; Baseline (Table 10)", "value": "15.2 ± 5.5", "unit": "ratio"}, {"measurement": "LVEDD", "setting": "[1]; Baseline (Table 10)", "value": "66 ± 9", "unit": "mm"}, {"measurement": "LVEF", "setting": "[1]; Baseline (Table 10)", "value": "27.4 ± 7.4", "unit": "%"}, {"measurement": "LVESD", "setting": "[1]; Baseline (Table 10)", "value": "58 ± 9", "unit": "mm"}, {"measurement": "SV (echocardiography)", "setting": "[1]; Baseline (Table 10)", "value": "54.3 ± 18.4", "unit": "mL"}, {"measurement": "TAPSE", "setting": "[1]; Baseline (Table 10)", "value": "13.0 ± 5.9", "unit": "mm"}, {"measurement": "Strain", "setting": "[1]; Baseline (Table 10), n = 12 in ghrelin group", "value": "11.9 ± 6.3", "unit": "%"}, {"measurement": "CO (echocardiography)", "setting": "[1]; INF + 60 min", "value": "3.9 ± 1.3", "unit": "L/min"}, {"measurement": "E/e′", "setting": "[1]; INF + 60 min", "value": "17.1 ± 9.5", "unit": "ratio"}, {"measurement": "LVEDD", "setting": "[1]; INF + 60 min", "value": "67 ± 9", "unit": "mm"}, {"measurement": "LVEF", "setting": "[1]; INF + 60 min", "value": "29.1 ± 11.5", "unit": "%"}, {"measurement": "LVESD", "setting": "[1]; INF + 60 min", "value": "58 ± 11", "unit": "mm"}, {"measurement": "SV (echocardiography)", "setting": "[1]; INF + 60 min", "value": "56.3 ± 21.4", "unit": "mL"}, {"measurement": "TAPSE", "setting": "[1]; INF + 60 min", "value": "13.1 ± 4.8", "unit": "mm"}, {"measurement": "Strain", "setting": "[1]; INF + 60 min, n = 13", "value": "13.4 ± 4.6", "unit": "%"}, {"measurement": "CO (echocardiography)", "setting": "[1]; INF + 120 min", "value": "3.9 ± 1.4", "unit": "L/min"}, {"measurement": "E/e′", "setting": "[1]; INF + 120 min", "value": "16.3 ± 8.9", "unit": "ratio"}, {"measurement": "LVEDD", "setting": "[1]; INF + 120 min", "value": "67 ± 10", "unit": "mm"}, {"measurement": "LVEF", "setting": "[1]; INF + 120 min", "value": "29.8 ± 11.4", "unit": "%"}, {"measurement": "LVESD", "setting": "[1]; INF + 120 min", "value": "57 ± 11", "unit": "mm"}, {"measurement": "SV (echocardiography)", "setting": "[1]; INF + 120 min", "value": "59.5 ± 25.5", "unit": "mL"}, {"measurement": "TAPSE", "setting": "[1]; INF + 120 min", "value": "14.2 ± 5.4", "unit": "mm"}, {"measurement": "Strain", "setting": "[1]; INF + 120 min, n = 13", "value": "13.2 ± 5.8", "unit": "%"}, {"measurement": "change in CO by echocardiography", "setting": "[1]; in vivo", "value": "trends toward a difference in change of CO in favor of ghrelin; also recorded: a nominal interaction suggesting improvement with ghrelin but no significant differences in change"}, {"measurement": "change in E/e′", "setting": "[1]; in vivo", "value": "no differences in change; also recorded: no interaction with or differences in change"}, {"measurement": "change in EF", "setting": "[1]; in vivo", "value": "a trend toward a greater absolute (p=0.12) and percent change (p=0.14) in EF with ghrelin; also recorded: a nominal interaction suggesting improvement in EF with ghrelin"}, {"measurement": "change in LVEDD", "setting": "[1]; in vivo", "value": "no change or differences in change"}, {"measurement": "change in LVESD", "setting": "[1]; in vivo", "value": "no change or differences in change"}, {"measurement": "change in SV by echocardiography", "setting": "[1]; in vivo", "value": "a significant difference in change of SV in favor of ghrelin; also recorded: a significant interaction suggesting improvement with ghrelin"}, {"measurement": "change in TAPSE", "setting": "[1]; in vivo", "value": "a trend toward a greater difference in change; also recorded: a trend toward an interaction suggesting improvement in TAPSE"}, {"measurement": "segmental strain by echocardiography", "setting": "[1]; in vivo", "value": "numerical differences in favor of ghrelin but no statistical significance"}, {"measurement": "improvement of CO", "setting": "[2]", "value": "not"}, {"measurement": "CO and fractional shortening", "setting": "rat HF models; rat HF models (Nagaya et al., 2001d)", "value": "increased CO and fractional shortening"}, {"measurement": "cardiac sympathetic activity and LV remodeling", "setting": "rat HF models; rat myocardial infarction models", "value": "reduced cardiac sympathetic activity and left ventricular (LV) remodeling"}]}]}
